The values that follow come from article PMC6687188, “Novel lactate dehydrogenase inhibitors with in vivo efficacy against Cryptosporidium parvum” (PLoS Pathogens, 2019).

The first assay addresses recombinant CpLDH protein (Cryptosporidium parvum, UniProt Q9GT92, F198L/K295E/R251K).
Details: not given
Regarding `O=C(Nc1ccc2c(c1)oc(=O)c1ccccc12)C(Cl)Cl` [NSC65937], the “MEAN CpLDH INHIBITION (%)” value was -25.00%.
Take `Cn1c(=O)[nH]c2nncnc2c1=O` [NSC99733]: the “MEAN CpLDH INHIBITION (%)” value is recorded as -38.11%.
Regarding `CCN(CC)CCNc1ccc2nc(C)n3c4ccc(OC)cc4c(=O)c1c23` [NSC637993], the “MEAN CpLDH INHIBITION (%)” value was -46.33%.
On to `O=C1C2=Nc3ccccc3C(O)N2c2ccccc21` (stereo not drawn) [NSC292147], for which the “MEAN CpLDH INHIBITION (%)” value is reported as -13.84%.
As for `COc1ccccc1[S+]([O-])Nc1ccccc1` (stereo not drawn) [NSC676561], the “MEAN CpLDH INHIBITION (%)” value is reported as -16.89%.
In the case of `COc1ccc(/C=C2\CCc3ccccc3C2=O)cc1OC` [NSC643175], the “MEAN CpLDH INHIBITION (%)” value is on record as -25.23%.
The same measure, in the same setting: the same measure for `Cc1cc(N(C)C)ccc1N=Nc1ccc2ncccc2c1` [NSC680516]: -19.55%; for `OC(CN1CCCCC1)c1ccc(/C=C/c2ccc(Cl)cc2)cc1` (stereo not drawn) [NSC26040]: -70.84%.
Take `Cc1cccc(Cl)c1NC(=O)/C=C/c1ccccc1` [NSC191393]: the “MEAN CpLDH INHIBITION (%)” value is reported as -10.83%.
As for `CC1=C/C(=N\OCC(=O)O)CC(c2ccc(C(C)C)cc2)C1` (stereo not drawn) [NSC680506], the “MEAN CpLDH INHIBITION (%)” value was -8.88%.
As for `COc1ccc2oc(-c3ccncc3)cc(=O)c2c1` [NSC54650], the “MEAN CpLDH INHIBITION (%)” value is -73.33%.
For `C[CH2][Ge]([CH2]C)([CH2]C)[O]C(=O)CCC(=O)[O][Ge]([CH2]C)([CH2]C)[CH2]C` [NSC653558], the “MEAN CpLDH INHIBITION (%)” value is on record as -17.98%.
As for `O=[N+]([O-])c1cc(C(F)(F)F)cc([N+](=O)[O-])c1CCl` [NSC622627], the “MEAN CpLDH INHIBITION (%)” value is on record as -26.97%.
The same measure, in the same setting: the same measure for `Cc1ccc(C)c2c(N=Nc3ccccc3[N+](=O)[O-])c(O)[nH]c12` [NSC118732]: -7.91%.
Regarding `[O-][S+]1c2ccccc2N=C(c2cccc3ccccc23)CC1c1cccc2ccccc12` (stereo not drawn) [NSC634926], the “MEAN CpLDH INHIBITION (%)” value is recorded as -0.08%.
In the case of `COc1cccc2c1C(=O)c1c(O)c3c(c(O)c1C2=O)C[C@@](O)(C(C)=O)C[C@@H]3OC1CC(N(Cc2ccccc2)Cc2ccccc2)C(O)C(C)O1.Cl` (stereo partly drawn) [NSC268242], the “MEAN CpLDH INHIBITION (%)” value is given as -40.28%.
As for `Cc1ccc(NC(=O)c2cccc([N+](=O)[O-])c2O)c(C)c1` [NSC79456], the “MEAN CpLDH INHIBITION (%)” value is on record as -17.92%.
For `N#CCCN(CCC#N)c1ccc(/C=C2\N=C(c3cc([N+](=O)[O-])ccc3Cl)OC2=O)cc1` [NSC637916], the “MEAN CpLDH INHIBITION (%)” value is given as -14.05%.
Regarding `Cc1nc(-c2cccnc2)sc1C(=O)/C=C/c1ccc(Cl)cc1Cl` [NSC640580], the “MEAN CpLDH INHIBITION (%)” value is given as -13.66%.
For the compound `CC1(C)CC2=NO[Se]3=C2C(=NO3)C1` [NSC328587], the “MEAN CpLDH INHIBITION (%)” value is -53.59%.
Still for that read-out and setting: under `COc1ccc(NC(=O)C(=O)/C=C(\O)c2ccccc2)cc1` [NSC658709] stands -17.00%; under `COc1ccc(-n2/c(=N/C(=S)N(C)C)ss/c2=N\C(=S)N(C)C)cc1` [NSC622586], -55.77%.
For the compound `CCCCOCc1cc(CN2CCN(C)CC2)c(O)c2ncccc12` [NSC20514], the “MEAN CpLDH INHIBITION (%)” value was -30.20%.
Still for that read-out and setting: under `NC(=O)NO` [NSC32065] stands -2.35%; under `O=C(CC(=O)c1ccccc1NC1=Cc2ccccc2C(=O)C1=O)C(=O)NC1=C(Cl)C(=O)c2ccccc2C1=O` [NSC641245], -19.61%.
Turning to `O=C(NC1=C(Cl)C(=O)c2ccccc2C1=O)C(=O)C(C(=O)c1ccc2ccccc2c1)C1OC(=O)c2ccccc21` (stereo not drawn) [NSC641233], the “MEAN CpLDH INHIBITION (%)” value is listed as -51.96%.
Regarding `O=C(CC1(O)C(=O)Nc2c(Cl)ccc(Cl)c21)c1ccc(Cl)cc1Cl` (stereo not drawn) [NSC635436], the “MEAN CpLDH INHIBITION (%)” value is -79.39%.
Consider `CC1=CC(C)(C)N=C2SC(c3ccc(N)cc3)=NN12` [NSC640624], for which the “MEAN CpLDH INHIBITION (%)” value is recorded as -5.57%.
Take `CCC1CN2CCc3cc(OC)c(OC)cc3C2CC1CC1c2cc(OC)c(OC)cc2CCN1C(=O)C(Cc1c[nH]c2ccccc12)NC(=O)OC(C)(C)C` (stereo not drawn) [NSC109350]: the “MEAN CpLDH INHIBITION (%)” value is listed as -1.18%.
On the same count and under the same terms, the same measure for `Cl.O=C1C=CC(=O)c2c(O)c(N3CCN(CCOCCO)CC3)c(Br)c(O)c21` [NSC659999]: -30.12%.
With `Oc1cc(-n2cccn2)c(O)cc1-n1cccn1` [NSC645987], the “MEAN CpLDH INHIBITION (%)” value is given as -40.48%.
For `CN(C)c1cccc(/C=C(\C#N)c2ccccc2)c1` [NSC667251], the “MEAN CpLDH INHIBITION (%)” value is recorded as -17.96%.
For the compound `CC(C)(C)c1ccc(O)c(CN(Cc2cc(C(C)(C)C)ccc2O)C2CCCCC2)c1` [NSC48151], the “MEAN CpLDH INHIBITION (%)” value is reported as -66.17%.
On to `COc1cc2c(c3oc4cccc(O)c4c(=O)c13)[C@@H]1C=CO[C@@H]1O2` [NSC204985], for which the “MEAN CpLDH INHIBITION (%)” value is -20.51%.
As for `OC[C@H]1O[C@@H](n2cnc3cncnc32)[C@H](O)[C@@H]1O` [NSC65423], the “MEAN CpLDH INHIBITION (%)” value is on record as -32.77%.
As to `CC1(C)N=C(N)N=C(N)N1c1ccc(CCCCc2ccc(Cl)cc2Cl)cc1` [NSC104129], the “MEAN CpLDH INHIBITION (%)” value is recorded as -53.74%.
The same measure, in the same setting: under `COc1nc(N)nc2nc[nH]c12` [NSC37364] stands -36.91%; under `Nc1nc(-c2cccs2)cs1` [NSC54297], -31.48%; under `O=[n+]1c2c(n([O-])c3ccccc31)-c1cccc3cccc-2c13` [NSC60309], -23.17%.
On to `CC(=O)[O][Sn]([CH2]c1ccccc1)([CH2]c1ccccc1)[CH2]c1ccccc1` [NSC164909], for which the “MEAN CpLDH INHIBITION (%)” value is -58.07%.
As to `COC(=O)c1ccc(NCc2cc(O)ccc2O)cc1` [NSC654705], the “MEAN CpLDH INHIBITION (%)” value was -2.14%.
For `COC(=O)c1ccccc1NC(=O)C(=O)CC(=O)c1ccccc1NC1=CC(=O)C(=O)c2ccccc21` [NSC641240], the “MEAN CpLDH INHIBITION (%)” value is listed as -190.19%.
Take `CC1CCOC(=O)/C=C/C=C/C(=O)OC2CC3OC4C5OC5(C)C(O)CC4(COC(=O)C1O)C2(C)C31CO1` (stereo not drawn) [NSC328166]: the “MEAN CpLDH INHIBITION (%)” value was -4.71%.
`Clc1ccc(-c2c(C3=NCCCN3)nnn2-c2ccc(Cl)cc2)cc1` [NSC645033]: the “MEAN CpLDH INHIBITION (%)” value is reported as -3.66%.
Same read-out and setting: under `Cc1ccc(CC2(OCCN(C)C)CCC(C(C)(C)C)CC2)cc1.O=C(O)/C=C/C(=O)O` (stereo not drawn) [NSC670229] stands -52.64%; under `COc1cc(-c2cc(=O)c3c(OC)c(OC)c(OC)c(OC)c3o2)cc(OC)c1OC` [NSC67580], -41.90%; under `CCN(CC)CCOC(=O)Cc1cccc2c(=O)cc(-c3ccccc3)oc12` [NSC293015], -3.81%.
Regarding `C1CN(c2nnc(N3CCC3)nn2)C1` [NSC625748], the “MEAN CpLDH INHIBITION (%)” value is given as -117.70%.
For the compound `CCOC(=O)c1ccc(-c2cc(C)no2)[nH]1` [NSC693053], the “MEAN CpLDH INHIBITION (%)” value is -6.53%.
Regarding `CCOC(OC1=C(C#N)CCC1)C(C)[Se]c1ccccc1` (stereo not drawn) [NSC646189], the “MEAN CpLDH INHIBITION (%)” value is recorded as -21.95%.
On the same count and under the same terms, the same measure for `N#Cc1ccccc1NC(=O)C(=O)C(C(=O)c1ccccc1F)C1OC(=O)c2ccccc21` (stereo not drawn) [NSC640974]: -7.97%.
On to `O=C(O)c1ccc(Nc2c3ccccc3nc3ccccc23)cc1.[Na+]` [NSC235082], for which the “MEAN CpLDH INHIBITION (%)” value is -28.09%.
As for `CC(C)(C)[Si](C)(C)OCC1CCC(n2cnc3c(N)ncnc32)O1` (stereo not drawn) [NSC616355], the “MEAN CpLDH INHIBITION (%)” value is -24.91%.

The same assay, now with this note: 20 μM compound; 10 mM pyruvate, 1 mM NADH; values below 0 = augmenters.
As to `Oc1cccc2cccnc12` [NSC285166], the “MEAN CpLDH INHIBITION (%)” value is on record as -48.97%.
